Laboratory results: ChEMBL document CHEMBL1201862, “PubChem BioAssay data set” (2004)
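Following 48 hours of exposure in 96-well plates, responses at five concentrations were used to interpolate endpoints linearly. Here, GI50 denotes the concentration required for 50% inhibition of growth.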 The source made the active and inactive calls. Cut-off read from the data, not from the text of the source: active = GI50 up to about 1.1 µM and inactive = higher.

Experiments:
Assay in all cases: growth of human tumour cells (NCI), 48 h
[1] = tested on: 786-0
[2] = tested on: A549
[3] = tested on: ACHN
[4] = tested on: BT-549
[5] = tested on: CCRF-CEM
[6] = tested on: COLO 205
[7] = tested on: DU-145
[8] = tested on: HCC 2998
[9] = tested on: HCT-15
[10] = tested on: HL-60
[11] = tested on: HOP-92
[12] = tested on: HT-29
[13] = tested on: Hs-578T
[14] = tested on: IGROV-1
[15] = tested on: K562
[16] = tested on: KM12
[17] = tested on: LOX IMVI
[18] = tested on: M14
[19] = tested on: MCF7
[20] = tested on: MDA-MB-231
[21] = tested on: MDA-MB-435
[22] = tested on: MDA-N
[23] = tested on: MOLT-4
[24] = tested on: Malme-3M
[25] = tested on: NCI-H226
[26] = tested on: NCI-H23
[27] = tested on: NCI-H460
[28] = tested on: NCI-H522
[29] = tested on: OVCAR-3
[30] = tested on: OVCAR-4
[31] = tested on: OVCAR-5
[32] = tested on: OVCAR-8
[33] = tested on: RPMI-8226
[34] = tested on: RXF 393
[35] = tested on: SF-268
[36] = tested on: SF-295
[37] = tested on: SK-MEL-28
[38] = tested on: SK-MEL-2
[39] = tested on: SK-MEL-5
[40] = tested on: SN12C
[41] = tested on: SNB-19
[42] = tested on: SNB-75
[43] = tested on: SR
[44] = tested on: SW-620
[45] = tested on: T47D
[46] = tested on: TK-10
[47] = tested on: U-251
[48] = tested on: UACC-257
[49] = tested on: UACC-62
[50] = tested on: UO-31
[51] = tested on: CAKI-1
[52] = tested on: EKVX
[53] = tested on: HCT-116
[54] = tested on: HOP-62
[55] = tested on: NCI/ADR-RES
[56] = tested on: PC-3
[57] = tested on: SF-539
[58] = tested on: SK-OV-3

With `CN1CCN(C(=S)N(C(=O)c2ccco2)c2ccccc2)CC1` as the molecule, how does the GI50 [1] read?
Its GI50 is > 100 µM (inactive).

And the GI50 [2]?
The GI50 was > 100 µM (inactive).

What about the GI50 [3] of the same molecule?
The GI50 was > 100 µM (inactive).

What about the GI50 [4] of the same molecule?
Its GI50 is > 100 µM (inactive).

And the GI50 [5]?
The GI50 was > 100 µM (inactive).

What about the GI50 [6] of the same molecule?
Its GI50 is > 100 µM (inactive).

And the GI50 [7]?
Its GI50 is > 100 µM (inactive).

And the GI50 [8]?
Its GI50 is > 100 µM (inactive).

And the GI50 [9]?
Its GI50 is over 100 µM.

And the GI50 [10]?
The GI50 was > 100 µM (inactive).

What about the GI50 [11] of the same molecule?
Its GI50 is > 100 µM (inactive).

And the GI50 [12]?
Its GI50 is > 100 µM (inactive).

And the GI50 [13]?
The GI50 was > 100 µM (inactive).

And the GI50 [14]?
Its GI50 is > 100 µM (inactive).

What about the GI50 [15] of the same molecule?
The GI50 was > 100 µM (inactive).

And the GI50 [16]?
The GI50 was > 100 µM (inactive).

And the GI50 [17]?
The GI50 was > 100 µM (inactive).

What about the GI50 [18] of the same molecule?
The GI50 was > 100 µM (inactive).

And the GI50 [19]?
The GI50 was > 100 µM (inactive).

What about the GI50 [20] of the same molecule?
Its GI50 is > 100 µM (inactive).

What about the GI50 [21] of the same molecule?
The GI50 was > 100 µM (inactive).

And the GI50 [22]?
Its GI50 is > 100 µM (inactive).

What about the GI50 [23] of the same molecule?
Its GI50 is > 100 µM (inactive).

And the GI50 [24]?
The GI50 was > 100 µM (inactive).

What about the GI50 [25] of the same molecule?
Its GI50 is > 100 µM (inactive).

What about the GI50 [26] of the same molecule?
The GI50 was > 100 µM (inactive).

And the GI50 [27]?
Its GI50 is > 100 µM (inactive).

And the GI50 [28]?
Its GI50 is > 100 µM (inactive).

What about the GI50 [29] of the same molecule?
The GI50 was > 100 µM (inactive).

And the GI50 [30]?
The GI50 was > 100 µM (inactive).

What about the GI50 [31] of the same molecule?
The GI50 was > 100 µM (inactive).

And the GI50 [32]?
The GI50 was > 100 µM (inactive).

What about the GI50 [33] of the same molecule?
Its GI50 is > 100 µM (inactive).

What about the GI50 [34] of the same molecule?
The GI50 was > 100 µM (inactive).

What about the GI50 [35] of the same molecule?
Its GI50 is > 100 µM (inactive).

And the GI50 [36]?
The GI50 was > 100 µM (inactive).

What about the GI50 [37] of the same molecule?
Its GI50 is > 100 µM (inactive).

What about the GI50 [38] of the same molecule?
Its GI50 is > 100 µM (inactive).

And the GI50 [39]?
Its GI50 is > 100 µM (inactive).

And the GI50 [40]?
Its GI50 is > 100 µM (inactive).

What about the GI50 [41] of the same molecule?
The GI50 was > 100 µM (inactive).

What about the GI50 [42] of the same molecule?
Its GI50 is > 100 µM (inactive).

What about the GI50 [43] of the same molecule?
The GI50 was > 100 µM (inactive).

And the GI50 [44]?
Its GI50 is > 100 µM (inactive).

What about the GI50 [45] of the same molecule?
Its GI50 is > 100 µM (inactive).

And the GI50 [46]?
Its GI50 is > 100 µM (inactive).

And the GI50 [47]?
The GI50 was > 100 µM (inactive).

And the GI50 [48]?
Its GI50 is > 100 µM (inactive).

And the GI50 [49]?
Its GI50 is > 100 µM (inactive).

And the GI50 [50]?
Its GI50 is > 100 µM (inactive).

What does the source list for `O=C(c1cccnc1)N1N=C(c2ccccc2)CC1(O)c1cc(F)c(Cl)cc1Cl` (stereo not given)?
GI50 [1]: 22.1 µM (inactive); GI50 [2]: 27.6 µM (inactive); GI50 [3]: 23.2 µM (inactive); GI50 [4]: 20.3 µM (inactive); GI50 [51]: 33.3 µM (inactive); GI50 [5]: 24.6 µM (inactive); GI50 [6]: 14.1 µM (inactive); GI50 [7]: 32.1 µM (inactive); GI50 [52]: 21.8 µM (inactive); GI50 [53]: 13.8 µM (inactive); GI50 [9]: 26.2 µM; GI50 [10]: 21.4 µM (inactive); GI50 [54]: 16.1 µM (inactive); GI50 [11]: 20.7 µM (inactive); GI50 [12]: 19.6 µM (inactive); GI50 [13]: 27 µM (inactive); GI50 [14]: 10.4 µM (inactive); GI50 [15]: 21.4 µM (inactive); GI50 [16]: 25.6 µM (inactive); GI50 [17]: 15.7 µM (inactive); GI50 [18]: 22 µM (inactive); GI50 [20]: 15.7 µM (inactive); GI50 [21]: 26.9 µM (inactive); GI50 [22]: 28.6 µM (inactive); GI50 [23]: 14.5 µM (inactive); GI50 [24]: 29.2 µM (inactive); GI50 [25]: 15.6 µM (inactive); GI50 [26]: 27 µM (inactive); GI50 [27]: 18.6 µM (inactive); GI50 [28]: 26.1 µM (inactive); GI50 [55]: 23.5 µM (inactive); GI50 [29]: 7.31 µM (inactive); GI50 [30]: 27 µM (inactive); GI50 [31]: 32.8 µM (inactive); GI50 [32]: 25.5 µM (inactive); GI50 [56]: 20.5 µM (inactive); GI50 [33]: 18.2 µM (inactive); GI50 [34]: 16.7 µM (inactive); GI50 [35]: 30.5 µM (inactive); GI50 [36]: 16.3 µM (inactive); GI50 [57]: 15.4 µM (inactive); GI50 [37]: 25.1 µM (inactive); GI50 [38]: 19.4 µM (inactive); GI50 [39]: 13.9 µM (inactive); GI50 [58]: 23.7 µM (inactive); GI50 [40]: 17.2 µM (inactive); GI50 [41]: 40 µM (inactive); GI50 [42]: 16.4 µM (inactive); GI50 [43]: 22.5 µM (inactive); GI50 [44]: 28.3 µM (inactive); GI50 [45]: 12.3 µM (inactive); GI50 [46]: 41 µM (inactive); GI50 [47]: 16.4 µM (inactive); GI50 [48]: 18.6 µM (inactive); GI50 [50]: 25.6 µM (inactive)
